# Results published in patent US20230416330A1, “Optimized GIP Peptide Analogues” (Antag Therapeutics ApS, priority 2019, published 2023).
# Non-standard residues stand in square brackets, D forms with d. Residues, ends and D or L forms follow the SMILES beside them. *: point of attachment. C16 diacid = O=C(O)CCCCCCCCCCCCCCC(=O)*; Aib = CC(C)(N)C(=O)O
# Key:
# [1] = Physical stability: fibril formation in Thioflavin T (ThT) assay with agitation; format: physicochemical; settings: 25° C., agitation
# Procedure, shortened: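 Read-out is continuous ThT fluorescence at 486 nm, with lag time taken where signal reaches 10% between pre- and post-transition baselines. Filtered samples (1, 5, 7.5 or 15 mg/ml; pH 7.4 phosphate buffer or NaOH-adjusted water) were stressed at 25° C. by orbital rotation at 300 rpm with one silica bead per well.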
# [2] = Solubility by visual inspection of peptide solutions; format: physicochemical
# Procedure, shortened: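 Solubility scored by eye: clear, colorless appearance after gentle mixing. Samples prepared at 1, 5, 7.5 or 15 mg/ml in either pH 7.4 water (NaOH-adjusted) or 50 mM sodium phosphate buffer, pH 7.4.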
# [3] = molecular target: T1, human GIP receptor (Homo sapiens, UniProt P48546); experiment: cAMP assay Alternative 1 (CisBio assay), GIPR antagonism; format: cell-based; settings: Table 2B; % inhibition of Emax
# T1 construct: host or cells: HEK-293 cells, transient transfection (Lipofectamine 2000), cDNA in pCMV-Script vector
# T1 sequence (P48546 22-466): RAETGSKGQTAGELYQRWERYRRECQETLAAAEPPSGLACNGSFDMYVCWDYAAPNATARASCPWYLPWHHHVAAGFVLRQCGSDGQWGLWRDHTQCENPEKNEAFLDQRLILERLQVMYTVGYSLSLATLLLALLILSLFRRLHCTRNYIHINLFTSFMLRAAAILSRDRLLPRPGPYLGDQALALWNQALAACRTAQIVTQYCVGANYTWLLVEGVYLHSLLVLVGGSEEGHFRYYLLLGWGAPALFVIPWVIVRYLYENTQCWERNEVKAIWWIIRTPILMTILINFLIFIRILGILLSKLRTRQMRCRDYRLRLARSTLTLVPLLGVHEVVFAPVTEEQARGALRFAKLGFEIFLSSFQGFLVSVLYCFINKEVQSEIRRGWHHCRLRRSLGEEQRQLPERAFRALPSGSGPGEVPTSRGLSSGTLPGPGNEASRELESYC
# Procedure, shortened: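 HEK293 cells transiently transfected with hGIPR, compounds diluted in HBSS/HEPES/pluronic/casein with 500 uM IBMX; decrease in intracellular cAMP read by HTRF (665/620 nm) and converted via cAMP standard curve. pIC50 from four-parameter fit; agonism tested separately after 30 min at 37° C.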
Structure (SMILES),"Avr lag time (h) ([1]; 1 mg/ml, TFA, Phosphate (7.4))","Visual appearance ([2]; 1 mg/ml, TFA, Phosphate (7.4))",cAMP antagonism % inhib [3] [%],"Avr lag time (h) ([1]; 5 mg/ml, Na, MilliQ (8))","Avr lag time (h) ([1]; 7.5 mg/ml, Na, MilliQ (8))","Avr lag time (h) ([1]; 15 mg/ml, Na, MilliQ (8))","Visual appearance ([2]; 5 mg/ml, Na, MilliQ (8))","Visual appearance ([2]; 7.5 mg/ml, Na, MilliQ (8))","Visual appearance ([2]; 15 mg/ml, Na, MilliQ (8))"
CC[C@H](C)[C@H](NC(=O)[C@H](CO)NC(=O)[C@H](Cc1ccc(O)cc1)NC(=O)[C@H](CC(=O)O)NC(=O)[C@H](CO)NC(=O)[C@@H](NC(=O)[C@H](Cc1ccccc1)NC(=O)[C@@H](NC(=O)CNC(=O)[C@@H](N)CCC(=O)O)[C@@H](C)O)[C@@H](C)CC)C(=O)N[C@@H](C)C(=O)N[C@@H](CC(C)C)C(=O)N[C@@H](CC(=O)O)C(=O)N[C@@H](CCCCN)C(=O)N[C@H](C(=O)N[C@@H](CCCCNC(=O)CCCCCCCCCCCCCCC(=O)O)C(=O)N[C@@H](CCC(N)=O)C(=O)N[C@@H](CCC(N)=O)C(=O)N[C@@H](CC(=O)O)C(=O)N[C@@H](Cc1ccccc1)C(=O)N[C@H](C(=O)N[C@@H](CCC(=O)O)C(=O)N[C@@H](Cc1c[nH]c2ccccc12)C(=O)N[C@@H](CC(C)C)C(=O)N[C@@H](CC(C)C)C(=O)N[C@@H](C)C(=O)N[C@@H](CCC(N)=O)C(=O)N[C@@H](CCCCN)C(=O)N1CCC[C@H]1C(=O)N[C@@H](CO)C(=O)N[C@@H](CO)C(=O)NCC(=O)N[C@@H](C)C(=O)N1CCC[C@H]1C(=O)N1CCC[C@H]1C(=O)N1CCC[C@H]1C(=O)N[C@@H](CO)C(=O)O)C(C)C)[C@@H](C)CC [AT668] (H-EGTFISDYSIALDKIK(C16 diacid)QQDFVEWLLAQKPSSGAPPPS-OH; N-terminus assumed),fnd (Fnd = fibrils not detected within experiment time (96 hours) with agitation.),Clear,92,,,,,,
CC[C@H](C)[C@H](NC(=O)[C@H](CCCCN)NC(=O)[C@H](CCC(=O)O)NC(=O)[C@H](CC(C)C)NC(=O)C(C)(C)NC(=O)[C@@H](NC(=O)[C@H](CO)NC(=O)[C@H](Cc1ccc(O)cc1)NC(=O)[C@H](CCC(=O)O)NC(=O)[C@H](CO)NC(=O)[C@@H](NC(=O)[C@H](Cc1ccccc1)NC(=O)[C@@H](NC(=O)CNC(=O)[C@@H](N)CCC(=O)O)[C@@H](C)O)[C@@H](C)CC)[C@@H](C)CC)C(=O)N[C@@H](CCCCNC(=O)CCCCCCCCCCCCCCC(=O)O)C(=O)N[C@@H](CCC(N)=O)C(=O)N[C@@H](CCC(N)=O)C(=O)N[C@@H](CCC(=O)O)C(=O)N[C@@H](Cc1ccccc1)C(=O)N[C@H](C(=O)N[C@@H](CCC(=O)O)C(=O)N[C@@H](Cc1c[nH]c2ccccc12)C(=O)N[C@@H](CC(C)C)C(=O)N[C@@H](CC(C)C)C(=O)N[C@@H](C)C(=O)N[C@@H](CCC(N)=O)C(=O)N[C@@H](CCCCN)C(=O)N1CCC[C@H]1C(=O)N[C@@H](CO)C(=O)N[C@@H](CO)C(=O)NCC(=O)N[C@@H](C)C(=O)N1CCC[C@H]1C(=O)N1CCC[C@H]1C(=O)N1CCC[C@H]1C(=O)N[C@@H](CO)C(=O)O)C(C)C [AT673] (H-EGTFISEYSI[Aib]LEKIK(C16 diacid)QQEFVEWLLAQKPSSGAPPPS-OH; N-terminus assumed),fnd (Fnd = fibrils not detected within experiment time (96 hours) with agitation.),Clear,94,fnd (Fnd = fibrils not detected within experiment time (96 hours) with agitation.),fnd (Fnd = fibrils not detected within experiment time (96 hours) with agitation.),fnd (Fnd = fibrils not detected within experiment time (96 hours) with agitation.),Clear,Clear,Clear
